Measurements taken from ChEMBL document CHEMBL6114956, “Design, synthesis, and evaluation of the pharmacological activity of novel NMDA receptor antagonists based on the germacrone scaffold” (2025).
Activity calls are given as the source filed them. The calls are words filed in the database; no cut-off is given here.

Legend:
PC-12 [1] = assay: Neuroprotective activity against NMDA-induced cell injury in rat PC12 cells at 0.05 uM incubated for 12 hrs by MTT assay relative to control; type: functional
PC-12 [2] = assay: Neuroprotective activity against NMDA-induced cell injury in rat PC12 cells at 0.5 uM incubated for 12 hrs by MTT assay relative to control; type: functional
PC-12 [3] = assay: Neuroprotective activity against NMDA-induced cell injury in rat PC12 cells at 5 uM incubated for 12 hrs by MTT assay relative to control; type: functional
[4] = biological target: Glutamate NMDA receptor (Rattus norvegicus) (UniProt P35439+Q00959+Q00960+Q00961+Q62645+Q8VHN2+Q9R1M7); assay: Antagonist activity at NMDAR in rat PC12 cells assessed as inhibition of NMDA-induced Ca2+ influx at 0.05 uM preincubated for 6 hrs followed by NMDA addition measured for 1 to 3 mins by Fluo-4 AM staining based analysis; type: cell-based; settings: filed as antagonist, time 361-363 min

## CC(C)=C1C/C=C(/C)CC/C=C(\C)CC1OC(=O)[C@@H]1CCC2=Nc3ccc(Cl)cc3CN21 (stereo not given in full)
PC-12 [1]
  Activity: 28.73%
PC-12 [2]
  Activity: 28.87%
PC-12 [3]
  Activity: 25.35%

## CC(C)=C1C/C=C(/C)CC/C=C(\C)CC1OC(=O)[C@@H]1CCC2=Nc3ccccc3CN21 (stereo not given in full)
PC-12 [1]
  Activity: 29.63%
PC-12 [2]
  Activity: 26.17%
PC-12 [3]
  Activity: 24.42%
[4]
  Activity: Active; Compound Activity Was Superior To Ifenprodil

## CC(C)=C1C/C=C(/C)CC/C=C(\C)CC1OC(=O)[C@@H](C)NC(=O)c1ccc(O)cc1 (stereo not given in full)
PC-12 [1]
  Activity: 15.74%
PC-12 [2]
  Activity: 15.08%
PC-12 [3]
  Activity: 11.03%

## CC(C)=C1C/C=C(/C)CC/C=C(\C)CC1OC(=O)[C@@H]1CCC2=Nc3ccc(Br)cc3CN21 (stereo not given in full)
PC-12 [1]
  Activity: 23.62%
PC-12 [2]
  Activity: 28.02%
PC-12 [3]
  Activity: 29.37%

## CC(C)=C1C/C=C(/C)CC/C=C(\C)CC1=O
PC-12 [1]
  Activity: 14.66%
PC-12 [2]
  Activity: 2.94%
PC-12 [3]
  Activity: -4.79%
[4]
  Activity: Active

## CC(C)=C1C/C=C(/C)CC/C=C(\C)CC1OC(=O)[C@H](C)NC(=O)c1ccc(Cl)cc1 (stereo not given in full)
PC-12 [1]
  Activity: 14.06%
PC-12 [2]
  Activity: 15.27%
PC-12 [3]
  Activity: 11.25%

## CC(C)=C1C/C=C(/C)CC/C=C(\C)CC1OC(=O)[C@H](C)NC(=O)c1ccc(O)cc1 (stereo not given in full)
PC-12 [1]
  Activity: 12.86%
PC-12 [2]
  Activity: 10.31%
PC-12 [3]
  Activity: -2.01%

## CC(C(O)c1ccc(O)cc1)N1CCC(Cc2ccccc2)CC1 (stereo not given) [IFENPRODIL]
PC-12 [1]
  Activity: 18.31%
PC-12 [2]
  Activity: 22.57%
PC-12 [3]
  Activity: 31.16%

## CC(C)=C1C/C=C(/C)CC/C=C(\C)CC1OC(=O)[C@@H](C)NC(=O)c1ccc(Cl)cc1 (stereo not given in full)
PC-12 [1]
  Activity: 15.03%
PC-12 [2]
  Activity: 16.58%
PC-12 [3]
  Activity: 5.32%

## CC(C)=C1C/C=C(/C)CC/C=C(\C)CC1OC(=O)[C@H](C)NC(=O)c1ccc(F)cc1 (stereo not given in full)
PC-12 [1]
  Activity: 15.35%
PC-12 [2]
  Activity: 12.7%
PC-12 [3]
  Activity: 16.47%

## CC(C)=C1C/C=C(/C)CC/C=C(\C)CC1OC(=O)[C@@H](C)NC(=O)c1ccc(F)cc1 (stereo not given in full)
PC-12 [1]
  Activity: 13.93%
PC-12 [2]
  Activity: 9.33%
PC-12 [3]
  Activity: 12.32%
